{"source": "patent US8153116B2", "about": "“Use of conditional plasmodium strains lacking an essential gene in malaria vaccination” (University of Connecticut, priority 2006, dated 2012)", "test_system": "wild type, pfpmtΔ+PfPMT and pfpmtΔ parasites", "experiment": "TUNEL assay of drug-treated parasites", "assay_type": "cell-based, Plasmodium falciparum", "conditions": "100 nM, 24 h", "protocol": "The terminal deoxynucleotidyl transferase (TdT) dUTP nick end labeling (TUNEL) kit (Roche) was used to detect apoptotic cells following the manufacturer's instructions, with some modifications. Briefly, asynchronous cultures were grown to 10% parasitemia and 1 ml of the culture aliquots were washed twice with PBS and the cell count adjusted to 1×10^6 cells/ml. Fixation was achieved by resuspending the cells in 2% paraformaldehyde solution in PBS and incubated at room temperature for 1 h. The fixed cells were washed twice with PBS, resuspended in 100 μl of 0.1% Triton X-100 in 0.1% sodium citrate solution, and incubated for 2 min on ice. Cells were then washed twice in PBS and kept on ice until labeling. A positive control sample was prepared by incubating fixed and permeabilized cells with 3000 U/ml of DNase I for 15 min at room temperature followed by two washes with PBS. To label the cells, 50 μl of the TUNEL reaction mixture was added to the cell pellet and mixed gently. A negative control sample was included by treating fixed, permeabilized cells with the labeling solution in, the absence of the terminal TdT enzyme. The reaction mixtures were incubated in the dark at 37° C. for 1 h and then washed twice in PBS and resuspended in 250 μl PBS. Cells were analyzed by fluorescence microscopy at 525 nm wavelength with the FITC filter. […]"}
{"compound": "CCN(CC)CCCC(C)Nc1ccnc2cc(Cl)ccc12", "note": "(stereo not shown) [chloroquine]", "values": [{"measurement": "TUNEL staining of drug-treated parasites", "result": "positively stained with TUNEL"}]}
